Reference: patent publication US7442501B2, “SQV nucleic acids and polypeptides” (Massachusetts Institute of Technology, priority 2002, dated 2008)

Test system: MBP-SQV-1
Experiment: UDP-glucuronic acid decarboxylase assay (HPLC-MS)
Assay type: biochemical, C. elegans
Conditions: in the presence of NAD+ cofactor
Procedure: This enzymatic reaction mixture was analyzed using an HPLC coupled to a mass spectrometer. Ion phase reverse polarity HPLC separated the nucleotide sugars and […] into three peaks of elution as detected by UV (FIG. 3A). These peaks were determined by mass spectrometry to be the substrate UDP-glucuronic acid, the product UDP-xylose, and the cofactor NAD^+. Negative polarity mass spectra identified the masses of the most abundant compounds in the reaction sample as 579 and 535 (FIG. 3B). These masses corresponded to the molecular masses of UDP-glucuronic acid (580) and UDP-xylose (536). The slight difference in molecular mass (579 versus 580 and 535 versus 536) was due to the negative ionization by the mass spectrometer, which removed one hydrogen atom from each compound. The presence of isotopic masses of 536 and 537 corresponded to subpopulations of UDP-xylose containing heavy isotopes such as ^13C.
Standard molecular biology techniques were used (Sambrook et al., Molecular Cloning: A Laboratory Manual. Plainview, N.Y., Cold Spring Harbor Laboratory Pess, 1989) to obtain a construct that encoded a SQV-1-maltose-binding protein (MBP) fusion protein. The sqv-1 coding sequence was cloned into the MBP encoding vector, pMAL-c2. The oligonucleotides 5′-[…]-3′ (SEQ ID NO:32) and 5′-[…]-3′ (SEQ ID NO:33) were used to PCR-amplify the sqv-1 ORF. […]

## O=C(O)[C@H]1O[C@H](OP(=O)(O)OP(=O)(O)OC[C@H]2O[C@@H](n3ccc(=O)[nH]c3=O)[C@H](O)[C@@H]2O)[C@H](O)[C@@H](O)[C@@H]1O [UDP-glucuronic acid]
  conversion by MBP-SQV-1 fusion protein: generated UDP-xylose from UDP-glucuronic acid
